Results on 20 compounds are retold here after patent EP3789378A1, “PIPERIDINES OR PIPERIDONES SUBSTITUTED WITH UREA AND HETEROARYL” (Grünenthal GmbH, priority 2019, dated 2021).

Counter-ions that a name gives are not always drawn.

One assay concerns the target T1, h FPR2 (Homo sapiens, UniProt P25090).
T1 construct: expressed in transfected cells
T1 sequence (P25090 1-351): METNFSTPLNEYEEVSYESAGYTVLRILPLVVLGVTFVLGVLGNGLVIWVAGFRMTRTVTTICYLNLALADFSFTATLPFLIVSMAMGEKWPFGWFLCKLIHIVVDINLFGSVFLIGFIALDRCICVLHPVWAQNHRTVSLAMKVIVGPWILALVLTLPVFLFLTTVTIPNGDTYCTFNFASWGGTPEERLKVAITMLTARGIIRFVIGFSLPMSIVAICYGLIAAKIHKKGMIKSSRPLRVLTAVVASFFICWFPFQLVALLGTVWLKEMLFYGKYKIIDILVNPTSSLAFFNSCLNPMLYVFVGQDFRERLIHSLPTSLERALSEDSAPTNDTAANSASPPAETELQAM
Kind of assay: Agonistic activity in hFPR2-Aq-CHO cells (FLIPR Calcium 5 fluorescence assay). The class given is cell-based. The conditions noted are these: 11 point half log dilution, final assay concentration from 10µM. As for the experimental part:
After washing, the cells are plated at 10,000 cells per well in 40 µL complete medium in a 384-well sterile clear bottom black plate and incubated in a 5% CO2 incubator at 37°C for 18 hours. Plating media is removed from each well by decanting and gentle tapping before 30 µL of 0.5X Calcium 5 dye solution (0.5X FLIPR Calcium 5 dye (Molecular devices, R8186)); HBSS; 20mM HEPES; 2.5mM Probenecid; 0.025% Pluronic F-127; pH adjusted to 7.4) is added to each well and the plate is then incubated at 37°C for 30 minutes. For the assay the plate is equilibrated at room temperature for 10 minutes before placing it in the FLIPR. Compounds are dissolved in DMSO and serially diluted over an 11 point half log (3.16 fold) dilution (2 mM to 20 nM). Compounds are then diluted 1:50 in assay buffer (HBSS; 20mM HEPES; 2.5mM Probenecid; 0.05% gelatin; 0.1% BSA; pH adjusted to 7.4) just before performing the assay. Compounds are finally added to the respective wells of the cell plate (final assay concentration 10 µM to 100 pM) using the FLIPR (e.g. FLIPR-Tetra, Molecular Devices) and fluorescence readings are captured for 5 minutes. The increase in fluorescence from the basal reading in the presence of the compounds is compared with that of the control wells (wells having no compound) to calculate the activity of the compounds. The EC50 values of the compounds can be determined using e.g. Graph pad Prism software.
Assay method for measuring agonistic activity of compounds in hFPR2-Aq-CHO cell
Cryo-vial containing 6x10^6 cells (hFPR1-Gα15-CHO or hFPR2-Aq-CHO) was thawed in a 37°C water bath. Cells were suspended in 10ml of respective complete growth media (F12(1X)HAM media (Gibco; Cat#11765); 10% HI-FBS (Gibco; Cat#10082); 0.4 mg/ml Geneticin (Gibco; Cat#10131); 0.25 mg/ml Zeocin (Invitrogen; Cat#R25001)) in a 15ml centrifuge tube. The cell viability was checked with the help of Trypan Blue dye. Upon washing the cells, those were plated in a 384-well sterile clear bottom black plate (Greiner Bioone Cat# 781091) so that, each well contained 10,000 cells in 40µl complete growth media. The plate was incubated in a 5% CO2 incubator at 37°C for 18 hours. Before assay on the next day, the cell plating media was removed from each well of the plate by decanting and gentle tapping. 30µl of 0.5X Calcium 5 dye solution (0.5X FLIPR Calcium 5 dye (Molecular devices Cat# R8186); HBSS (Invitrogen; Cat#14025); 20mM HEPES (Sigma; Cat#H0887); 2.5mM Probenecid (Sigma; Cat#P8761); 0.025% Pluronic F-127 (Sigma; Cat#P2443); pH adjusted to 7.4) was added to each well. The plate was then incubated at 37°C for 30 minutes. Following which the plate was equilibrated at room temperature for 10 minutes before placing it in a 384 well FLIPR for assay. Compounds were dissolved in DMSO and serially diluted following 11 point half log (3.16 fold) dilution with a starting concentration of 2mM (Final assay concentration 10µM). Aliquots of above mentioned each dilution was mixed with assay buffer (HBSS (Invitrogen; Cat#14025); 20mM HEPES (Sigma; Cat#H0887); 2.5mM Probenecid (Sigma; Cat#P8761); 0.05% gelatin (Sigma; Cat#G1890); 0.1% BSA (Sigma; Cat#A3059); pH adjusted to 7.4) just before performing the assay. Compounds were added to the respective wells of the assay ready cell plate with the help of the FLIPR (FLIPR Tetra) and fluorescence readings were captured for 5 minutes to measure any agonistic response of the compounds. The increase in fluorescence readings from the basal reading in presence of the compounds were compared with that of the control wells (wells having no compound) to calculate the agonistic activity of the compounds. The EC50 values of the compounds were determined using the Graph pad Prism software.
A word on the EC50: it is the concentration needed to bring the measured effect to its halfway point. For the compound `COc1ccc([C@@H]2CN(C3(C#N)CC3)CC[C@H]2NC(=O)Nc2ccc(Cl)cc2)nc1` (relative stereo) [Ex-180, trans-1-(4-Chlorophenyl)-3-[1-(1-cyano-cyclopropyl)-3-(5-methoxy-pyridin-2-yl)-piperidin-4-yl]-urea], the EC50 came out at 0.5 nM.
On the same count and under the same terms, as for `Cc1cc(NC(=O)N[C@@H]2CCN(c3cncc(C)n3)C[C@H]2c2ccc(Cl)cn2)sn1` (relative stereo) [Ex-34, trans-1-[5-chloro-1'-(6-methyl-pyrazin-2-yl)-1',2',3',4',5',6'-hexahydro-[2,3']bipyridinyl-4'-yl]-3-(3-methyl-isothiazol-5-yl)-urea], the figure is 4 nM.
Same read-out and setting: as for `CS(=O)(=O)n1ccc(CN2CC[C@@H](NC(=O)Nc3ccccc3)[C@H](c3ccc(Cl)cn3)C2)n1` (relative stereo) [Ex-184, trans-1-[5-chloro-1'-(1-methanesulfonyl-1H-pyrazol-3-ylmethyl)-1',2',3',4',5',6'-hexahydro-[2,3']bipyridinyl-4'-yl]-3-phenyl-urea], the figure is 1.4 nM.
On to `Cc1cc(NC(=O)N[C@@H]2CCN(c3ccncn3)C[C@H]2c2ccc(Cl)cn2)sn1` (single isomer, unassigned) [Ex-16, trans-1-(5-chloro-1'-pyrimidin-4-yl-1',2',3',4',5',6'-hexahydro-[2,3']bipyridinyl-4'-yl)-3-(3-methyl-isothiazol-5-yl)-urea], for which the EC50 was 0.9 nM.
On the same count and under the same terms, as for `COc1ccc([C@@H]2CN(CC3CC(OC)C3)CC[C@H]2NC(=O)Nc2ccc(Cl)cc2)nc1` (single isomer, unassigned) [Ex-202, trans-1-(4-chloro-phenyl)-3-[5-methoxy-1'-(3-methoxy-cyclobutylmethyl)-1',2',3',4',5',6'-hexahydro-[2,3']bipyridinyl-4'-yl]-urea], the figure is 1.4 nM.
The same measure, in the same setting: as for `COCCCN1CC[C@@H](NC(=O)Nc2ccc(Cl)cc2)[C@H](c2ccc(OC)cn2)C1` (single isomer, unassigned) [Ex-191, trans-1-(4-chlorophenyl)-3-[1-(3-methoxypropyl)-3-(5-methoxypyridin-2-yl)piperidin-4-yl]urea], the figure is 0.7 nM; as for `CNCCC(=O)N1CC[C@@H](NC(=O)Nc2ccc(Cl)cc2)[C@H](c2ccc(OC)cn2)C1` (relative stereo) [Ex-97, trans-1-(4-chloro-phenyl)-3-[5-methoxy-1'-(3-methylamino-propionyl)-1',2',3',4',5',6'-hexahydro-[2,3']bipyridinyl-4'-yl]-urea], 4 nM; as for `COc1cnc([C@@H]2CN(CC3CCC(OC)CC3)CC[C@H]2NC(=O)Nc2ccc(Cl)cc2)c(F)c1` (relative stereo) [Ex-223, trans-1-(4-Chloro-phenyl)-3-[3-fluoro-5-methoxy-1'-(4-methoxy-cyclohexylmethyl)-1',2',3',4',5',6'-hexahydro-[2,3']bipyridinyl-4'-yl]-urea], 0.8 nM.
On the same count and under the same terms, as for `COc1ccc([C@@H]2CN(CC3(O)CC3)CC[C@H]2NC(=O)Nc2ccc(Cl)cc2)nc1` (relative stereo) [Ex-163, trans-1-(4-Chlorophenyl)-3-[1-[(1-hydroxy-cyclopropyl)-methyl]-3-(5-methoxy-pyridin-2-yl)-piperidin-4-yl]-urea], the figure is 0.8 nM; as for `COc1cnc([C@@H]2CN(CC3CC3)CC[C@H]2NC(=O)Nc2ccc(Cl)cc2)c(F)c1` (relative stereo) [Ex-209, trans-1-(4-chloro-phenyl)-3-(1'-cyclopropylmethyl-3-fluoro-5-methoxy-1',2',3',4',5',6'-hexahydro-[2,3']bipyridinyl-4'-yl)-urea], 0.3 nM.
With `COc1cnc([C@@H]2CN(CC3CCC(O)CC3)CC[C@H]2NC(=O)Nc2ccc(Cl)cc2)c(F)c1` (relative stereo) [Ex-221, trans-1-(4-chloro-phenyl)-3-[3-fluoro-1'-(4-hydroxy-cyclohexylmethyl)-5-methoxy-1',2',3',4',5',6'-hexahydro-[2,3']bipyridinyl-4'-yl]-urea], the EC50 is 0.9 nM.
Same read-out and setting: as for `COc1ccc([C@@H]2CN(C(C)(C)CO)CC[C@H]2NC(=O)Nc2ccc(Cl)cc2)nc1` (relative stereo) [Ex-219, trans-1-(4-chloro-phenyl)-3-[1'-(2-hydroxy-1,1-dimethyl-ethyl)-5-methoxy-1',2',3',4',5',6'-hexahydro-[2,3']bipyridinyl-4'-yl]-urea], the figure is 38 nM; as for `COc1ccc([C@@H]2CN(C(=O)C3CNC3)CC[C@H]2NC(=O)Nc2ccccc2)nc1` (racemic) [Ex-165, trans-1-[1-(Azetidine-3-carbonyl)-3-(5-methoxy-pyridin-2-yl)-piperidin-4-yl]-3-phenyl-urea], 11 nM; as for `COc1ccc([C@@H]2CN(C3COC3)CC[C@H]2NC(=O)Nc2cc(C)ns2)nc1` (relative stereo) [Ex-133, trans-1-[3-(5-Methoxy-pyridin-2-yl)-1-(oxetan-3-yl)-piperidin-4-yl]-3-(3-methyl-isothiazol-5-yl)-urea], 13 nM.
On the same count and under the same terms, as for `COC1CCC(C(=O)N2CC[C@@H](NC(=O)Nc3ccc(Cl)cc3)[C@H](c3ccc(Cl)s3)C2)CC1` (relative stereo) [Ex-107, trans-1-(4-chloro-phenyl)-3-[3-(5-chloro-thiophen-2-yl)-1-(4-methoxy-cyclohexanecarbonyl)-piperidin-4-yl]-urea], the figure is 46 nM; as for `O=C(Nc1ccc(Cl)cc1)N[C@@H]1CCN(CC2CCNCC2)C[C@H]1c1ccc(Cl)s1` (single isomer, unassigned) [Ex-84, trans-1-(4-chlorophenyl)-3-[3-(5-chlorothiophen-2-yl)-1-(piperidin-4-ylmethyl)piperidin-4-yl]urea dihydrochloride], 33 nM.
Consider `COc1ccc([C@H]2CN(Cc3cncc(F)c3)CC[C@@H]2NC(=O)Nc2ccc(Cl)cc2)nc1` (relative stereo) [Ex-68, trans-(4-chlorophenyl)-3-[1-[(5-fluoropyridin-3-yl)methyl]-3-(5-methoxypyridin-2-yl)piperidin-4-yl]urea], for which the EC50 turned out to be 0.09 nM.

The assay is the same for the next values; noted with them: agonistic response at 0.1µM.
`O=C(Nc1ccc(Cl)cc1)N[C@@H]1CCN(C(=O)CCO)C[C@H]1c1ccc(Cl)s1` (relative stereo) [Ex-131, trans-1-(4-Chlorophenyl)-3-[3-(5-chloro-thiophen-2-yl)-1-(3-hydroxy-propanoyl)-piperidin-4-yl]-urea]: the activation at 0.1 µM turned out to be 38%.
Still for that read-out and setting: as for `COc1ccc([C@@H]2CN(C(=O)c3cnccc3C(F)(F)F)CC[C@H]2NC(=O)Nc2ccc(Cl)cc2)nc1` (relative stereo) [Ex-98, trans-1-(4-chlorophenyl)-3-[3-(5-methoxypyridin-2-yl)-1-{[4-(trifluoromethyl)pyridin-3-yl]carbonyl}piperidin-4-yl]urea], the figure is 26%.
Regarding `COc1ccc([C@@H]2CN(CC(C)(C)O)CC[C@H]2NC(=O)Nc2cc(C)ns2)nc1` (relative stereo) [Ex-176, trans-1-[1-(2-Hydroxy-2-methyl-propyl)-3-(5-methoxy-pyridin-2-yl)-piperidin-4-yl]-3-(3-methyl-isothiazol-5-yl)-urea], the activation at 0.1 µM was 5%.
